Test results taken from US10131670B2, “Bicyclic heteroaryl derivatives as CFTR potentiators” (CYSTIC FIBROSIS FOUNDATION THERAPEUTICS, INC., priority 2016, dated 2018).

Key:
CFTR = CFTR (Homo sapiens, UniProt P13569); experiment: Ussing Chamber Electrophysiology Assay of CFTR Potentiation in CF Bronchial Epithelial Cells; assay type: cell-based; conditions: primary CF hBE cells, short-circuit current, scaled to DMSO (0%) and positive control potentiator (100%)
Source text: Ussing Chamber Electrophysiology Assay of CFTR Potentiation in CF Bronchial Epithelial Cells
Primary cystic fibrosis human bronchial epithelial (CF hBE) cells were expanded and cultured according to published methods (Neuberger et al., Ch. 4 of Cystic Fibrosis, Methods in Molecular Biology vol. 741, pp. 39-54 (2011)). Well-differentiated cells (>30 days at air/liquid interface) on Snapwell filters (Corning Costar, cat. no. 3801) were mounted in Ussing chambers (Physiologic Instruments, Inc., San Diego, Calif.). F508del/F508del cultures were assayed at 27° C. and G551D/F508del cells were assayed at 35° C. HEPES buffered physiological saline (composition (in mM): 137 NaCl, 4 KCl, 1 MgCl2, 1.8 CaCl2, 10 HEPES Na) was used in both apical and basolateral chambers. Chambers were bubbled with air to promote mixing and the voltage was clamped to zero. Amiloride (30 uM), forskolin (10 uM), test compound (4 increasing concentrations), and CFTRinh-172 (20 uM) were added sequentially with 20-25 minutes between additions. Short-circuit currents were acquired and analyzed using LabScribe2. Test compound responses were scaled relative to responses for DMSO (0%) and the maximal response of a positive control potentiator (100%).

F508del V470 CFTR = F508del V470 CFTR (Homo sapiens, UniProt P13569, DEL508-508); experiment: FRT Ion Flux Assay of F508del CFTR Potentiation; assay type: cell-based; conditions: FRT cells expressing F508del V470 CFTR and halide-sensitive YFP, forskolin 20 uM, 30 min
Description: FRT Ion Flux Assay of F508del CFTR Potentiation
Fischer rat thyroid (FRT) cell lines stably expressing recombinant F508del V470 CFTR and halide-sensitive yellow fluorescent protein (Pedemonte et al., J. Clin. Invest. 115(9) 2564-71 (2005)) were seeded at 25,000 cells/well in 50 uL/well of culture medium into black-walled, clear bottom tissue-culture-treated 384-well plates (Corning, cat. no. 3712). After one day, the cells were pre-incubated at 27° C./5% CO2 for 16-24 hours. The cells were then washed with dPBS and treated with forskolin (20 uM) and test compound for 30 min by addition of 20 uL of compound dilution buffer (dPBS containing forskolin and test compound). Plates were loaded into FLIPR384 fluorescence imaging plate reader (Molecular Devices). After an initial fluorescence reading, iodide buffer (25 uL) (composition (in mM): 137 NaI, 1.5 K2PO4, 8.1 NaH2PO4, 2.7 KCl, 0.5 MgCl2, 1 CaCl2) was added and a second fluorescence reading was made after approximately 21 seconds. Data treatment involved division of the second fluorescence reading by the initial fluorescence reading, then scaling of the resulting normalized endpoint fluorescence with respect to the responses for DMSO (0%) and a positive control potentiator (100%).

Sequence of F508del V470 CFTR (P13569 with tags, fused parts or gaps DEL508-508): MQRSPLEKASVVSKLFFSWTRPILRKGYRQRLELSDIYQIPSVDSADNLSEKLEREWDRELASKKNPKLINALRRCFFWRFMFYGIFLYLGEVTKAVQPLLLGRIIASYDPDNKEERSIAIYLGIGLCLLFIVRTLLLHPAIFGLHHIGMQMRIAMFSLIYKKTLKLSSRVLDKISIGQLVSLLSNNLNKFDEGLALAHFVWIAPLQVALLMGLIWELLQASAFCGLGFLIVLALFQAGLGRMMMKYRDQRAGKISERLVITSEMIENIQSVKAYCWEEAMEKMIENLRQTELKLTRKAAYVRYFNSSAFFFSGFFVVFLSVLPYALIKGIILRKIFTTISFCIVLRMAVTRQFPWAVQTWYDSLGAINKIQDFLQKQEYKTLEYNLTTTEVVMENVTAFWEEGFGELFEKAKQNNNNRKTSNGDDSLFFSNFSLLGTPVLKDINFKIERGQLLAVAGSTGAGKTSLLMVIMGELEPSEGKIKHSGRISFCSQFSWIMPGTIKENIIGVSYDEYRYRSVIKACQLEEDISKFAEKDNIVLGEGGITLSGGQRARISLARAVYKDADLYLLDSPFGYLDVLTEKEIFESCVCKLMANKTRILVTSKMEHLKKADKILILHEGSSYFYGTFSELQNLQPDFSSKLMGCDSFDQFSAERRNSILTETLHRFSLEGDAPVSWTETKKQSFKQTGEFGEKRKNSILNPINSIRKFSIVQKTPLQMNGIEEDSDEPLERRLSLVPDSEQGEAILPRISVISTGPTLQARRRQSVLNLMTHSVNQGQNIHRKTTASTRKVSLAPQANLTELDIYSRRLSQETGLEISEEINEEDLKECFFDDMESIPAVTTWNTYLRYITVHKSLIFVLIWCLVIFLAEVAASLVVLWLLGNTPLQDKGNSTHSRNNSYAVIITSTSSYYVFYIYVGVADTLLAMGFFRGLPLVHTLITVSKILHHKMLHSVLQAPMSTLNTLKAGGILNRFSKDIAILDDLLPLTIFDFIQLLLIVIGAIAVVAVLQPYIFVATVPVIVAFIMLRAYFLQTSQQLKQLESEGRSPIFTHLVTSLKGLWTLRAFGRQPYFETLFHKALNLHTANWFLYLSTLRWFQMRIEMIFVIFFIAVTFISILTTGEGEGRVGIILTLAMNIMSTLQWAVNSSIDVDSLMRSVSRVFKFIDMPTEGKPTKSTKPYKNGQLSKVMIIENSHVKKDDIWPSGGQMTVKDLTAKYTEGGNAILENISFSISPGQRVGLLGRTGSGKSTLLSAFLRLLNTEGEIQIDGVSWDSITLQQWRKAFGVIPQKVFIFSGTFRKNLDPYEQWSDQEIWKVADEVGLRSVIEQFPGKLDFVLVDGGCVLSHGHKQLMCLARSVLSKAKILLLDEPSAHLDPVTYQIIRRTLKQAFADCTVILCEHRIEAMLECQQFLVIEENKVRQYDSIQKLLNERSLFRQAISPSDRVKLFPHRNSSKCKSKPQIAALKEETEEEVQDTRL

SMILES | EC50 (CFTR) | EC50 (F508del V470 CFTR)
CCC(c1cn(-c2ccccc2F)nn1)c1c(C#N)c(-c2cnc(C(F)(F)F)nc2)c2c(N)ncnn12 (single isomer, unassigned) [Example 4, 4-amino-7-{1-[1-(2-fluorophenyl)-1H-1,2,3-triazol-4-yl]propyl}-5-[2-(trifluoromethyl)pyrimidin-5-yl]pyrrolo[2,1-f][1,2,4]triazine-6-carbonitrile] | 20.5 nM | 35.8 nM
CC(c1cn(-c2ccc(F)cc2F)nn1)c1c(C#N)c(-c2cnc(C(F)(F)F)nc2)c2c(N)ncnn12 (stereo not shown) [Example 24, 4-amino-7-{1-[1-(2,4-difluorophenyl)-1H-1,2,3-triazol-4-yl]ethyl}-5-[2-(trifluoromethyl)pyrimidin-5-yl]pyrrolo[2,1-f][1,2,4]triazine-6-carbonitrile] | 20.9 nM | 28.7 nM
CCC(c1cnn(-c2ccccc2F)c1)n1nc(-c2cnc(C(F)(F)F)nc2)c2c(N)ncnc21 (single isomer, unassigned) [Example 87, 1-{1-[1-(2-fluorophenyl)-1H-pyrazol-4-yl]propyl}-3-[2-(trifluoromethyl)pyrimidin-5-yl]-1H-pyrazolo[3,4-d]pyrimidin-4-amine] | 1.53 nM | 4.76 nM
CC(c1cnn(-c2ccccc2F)c1)c1c(C#N)c(-c2cnc(C(F)(F)F)nc2)c2c(N)ncnn12 (single isomer, unassigned) [Example 13, 4-amino-7-{1-[1-(2-fluorophenyl)-1H-pyrazol-4-yl]ethyl}-5-[2-(trifluoromethyl)pyrimidin-5-yl]pyrrolo[2,1-f][1,2,4]triazine-6-carbonitrile] | 0.42 nM | 0.62 nM
CC(c1cn(-c2cc(F)ccc2F)nn1)c1cc(-c2cnc(C(F)(F)F)nc2)c2c(N)ncnn12 (single isomer, unassigned) [Example 98, 7-{1-[1-(2,5-difluorophenyl)-1H-1,2,3-triazol-4-yl]ethyl}-5-[2-(trifluoromethyl)pyrimidin-5-yl]pyrrolo[2,1-f][1,2,4]triazin-4-amine] | 19.8 nM | 26 nM
CCC(c1cn(-c2ccc(F)cc2F)nn1)n1nc(-c2cnc(C(F)(F)F)nc2)c2c(N)ncnc21 (single isomer, unassigned) [Example 99, 1-{1-[1-(2,4-difluorophenyl)-1H-1,2,3-triazol-4-yl]propyl}-3-[2-(trifluoromethyl)pyrimidin-5-yl]-1H-pyrazolo[3,4-d]pyrimidin-4-amine] | 29.2 nM | 37.2 nM
CC(c1cc(-c2ccccc2F)no1)c1c(C#N)c(-c2cnc(C(F)(F)F)nc2)c2c(N)ncnn12 (single isomer, unassigned) [Example 18, 4-amino-7-{1-[3-(2-fluorophenyl)-1,2-oxazol-5-yl]ethyl}-5-[2-(trifluoromethyl)pyrimidin-5-yl]pyrrolo[2,1-f][1,2,4]triazine-6-carbonitrile] | 1.67 nM | 3.1 nM
CCC(c1cnn(C(C)C)c1)c1c(C#N)c(-c2cnc(C(F)(F)F)nc2)c2c(N)ncnn12 (single isomer, unassigned) [Example 10, 4-amino-7-{1-[1-(propan-2-yl)-1H-pyrazol-4-yl]propyl}-5-[2-(trifluoromethyl)pyrimidin-5-yl]pyrrolo[2,1-f][1,2,4]triazine-6-carbonitrile] | 48 nM | 95.9 nM
CCC(c1cn(-c2ccc(F)c(F)c2)nn1)c1cc(-c2cnc(C(F)(F)F)nc2)c2c(N)ncnn12 (single isomer, unassigned) [Example 63, 7-{1-[1-(3,4-difluorophenyl)-1H-1,2,3-triazol-4-yl]propyl}-5-[2-(trifluoromethyl)pyrimidin-5-yl]pyrrolo[2,1-f][1,2,4]triazin-4-amine] | 19.3 nM | 29.6 nM
CCC(c1cnn(-c2ccccc2F)c1)c1c(C#N)c(-c2cnc(C(F)(F)F)nc2)c2c(N)ncnn12 (single isomer, unassigned) [Example 15, 4-amino-7-{1-[1-(2-fluorophenyl)-1H-pyrazol-4-yl]propyl}-5-[2-(trifluoromethyl)pyrimidin-5-yl]pyrrolo[2,1-f][1,2,4]triazine-6-carbonitrile] | 0.2 nM | 0.56 nM
CC(O)(c1cn(-c2ccccc2F)nn1)c1cc(-c2cnc(C(F)(F)F)nc2)c2c(N)ncnn12 (single isomer, unassigned) [Example 67, 1-{4-amino-5-[2-(trifluoromethyl)pyrimidin-5-yl]pyrrolo[2,1-f][1,2,4]triazin-7-yl}-1-[1-(2-fluorophenyl)-1H-1,2,3-triazol-4-yl]ethanol] | 147 nM | 50.5 nM
N#Cc1c(-c2cnc(C(F)F)nc2)c2c(N)ncnn2c1Cc1cnn(-c2ccccc2F)c1 [Example 31, 4-amino-5-[2-(difluoromethyl)pyrimidin-5-yl]-7-{[1-(2-fluorophenyl)-1H-pyrazol-4-yl]methyl}pyrrolo[2,1-f][1,2,4]triazine-6-carbonitrile] | 1.05 nM | 0.41 nM
CCC(c1cn(-c2ccccc2F)nn1)c1cc(-c2cnc(C(F)(F)F)nc2)c2c(N)ncnn12 (single isomer, unassigned) [Example 58, 7-{1-[1-(2-fluorophenyl)-1H-1,2,3-triazol-4-yl]propyl}-5-[2-(trifluoromethyl)pyrimidin-5-yl]pyrrolo[2,1-f][1,2,4]triazin-4-amine] | 36.6 nM | 91.2 nM
CC(c1cn(-c2ccccc2F)nn1)c1c(C#N)c(-c2cnc(C(F)(F)F)nc2)c2c(N)ncnn12 (single isomer, unassigned) [Example 1, 4-amino-7-{1-[1-(2-fluorophenyl)-1H-1,2,3-triazol-4-yl]ethyl}-5-[2-(trifluoromethyl)pyrimidin-5-yl]pyrrolo[2,1-f][1,2,4]triazine-6-carbonitrile] | 51.1 nM | 46.8 nM
N#Cc1c(-c2cnc(C(F)(F)F)nc2)c2c(N)ncnn2c1Cc1cc(-c2ccccc2F)no1 [Example 35, 4-amino-7-{[3-(2-fluorophenyl)-1,2-oxazol-5-yl]methyl}-5-[2-(trifluoromethyl)pyrimidin-5-yl]pyrrolo[2,1-f][1,2,4]triazine-6-carbonitrile] | 4 nM | 4.65 nM
CC(c1cn(-c2ccccc2F)nn1)c1cc(-c2cnc(C(F)(F)F)nc2)c2c(N)ncnn12 (single isomer, unassigned) [Example 54, 7-{1-[1-(2-fluorophenyl)-1H-1,2,3-triazol-4-yl]ethyl}-5-[2-(trifluoromethyl)pyrimidin-5-yl]pyrrolo[2,1-f][1,2,4]triazin-4-amine] | 6.48 nM | 7.4 nM
CCC(c1cnn(-c2ccccc2F)c1)n1nc(-c2cnc(C(F)(F)F)nc2)c2c(N)ncnc21 (single isomer, unassigned) [Example 88, 1-{1-[1-(2-fluorophenyl)-1H-pyrazol-4-yl]propyl}-3-[2-(trifluoromethyl)pyrimidin-5-yl]-1H-pyrazolo[3,4-d]pyrimidin-4-amine] | 31 nM | 78.8 nM
CCC(c1cn(-c2ccccc2F)nn1)c1c(C#N)c(-c2cnc(C(F)(F)F)nc2)c2c(N)ncnn12 (single isomer, unassigned) [Example 5, 4-amino-7-{1-[1-(2-fluorophenyl)-1H-1,2,3-triazol-4-yl]propyl}-5-[2-(trifluoromethyl)pyrimidin-5-yl]pyrrolo[2,1-f][1,2,4]triazine-6-carbonitrile] | 3.02 nM | 2.13 nM
CCC(c1cn(-c2ccccc2F)nn1)c1cc(-c2cncnc2OC)c2c(N)ncnn12 (single isomer, unassigned) [Example 66, 7-{1-[1-(2-fluorophenyl)-1H-1,2,3-triazol-4-yl]propyl}-5-(4-methoxypyrimidin-5-yl)pyrrolo[2,1-f][1,2,4]triazin-4-amine] | 123 nM | 524 nM
CC(c1cn(-c2ccc(F)cc2F)nn1)c1cc(-c2cnc(C(F)(F)F)nc2)c2c(N)ncnn12 (single isomer, unassigned) [Example 55, 7-{1-[1-(2,4-difluorophenyl)-1H-1,2,3-triazol-4-yl]ethyl}-5-[2-(trifluoromethyl)pyrimidin-5-yl]pyrrolo[2,1-f][1,2,4]triazin-4-amine] | 225 nM | 266 nM
